# Measured values published in US20210308196A1, “COMPOSITIONS AND METHODS TO PROMOTE HOST DEFENSE AND STIMULATE, EXPAND, AND/OR RESET T CELL REPERTOIRES” (EVOLVE BIOSYSTEMS, INC., priority 2018, published 2021).
# How the values were obtained:
# Assay type in all cases: in vivo, human
# [1] = system: IL-1β, IL-2, IL-5, IL-6, IL-8, IL-10, IL-22, IFNγ, TNFα; assay: Fecal cytokines, multiplexed immunoassay (MSD U-PLEX Inflammation Panel 1); details: for IFNγ Median (SD) / IL-1β Median (SD) / IL-2 Median (SD) / IL-5 Median (SD) / IL-6 Median (SD) / IL-8 Median (SD) / IL-10 Median (SD) / IL-22 Median (SD) / TNFα Median (SD): infant feces
# Protocol: Multiplexed Immunoassays. Interleukin (IL)-1β, IL-2, IL-5, IL-6, IL-8, IL-10, IL-22, interferon (IFN) γ, and tumor necrosis factor (TNF) α were quantified from 80 mg of stool diluted 1:10 in Meso Scale Discovery (MSD; Rockville, Md.) diluent using the U-PLEX Inflammation Panel 1 (human) Kit according to the manufacturer's instructions. Standards and samples were measured in duplicate and blank values were subtracted from all readings. The plate was then read on a Sector Imager 2400 MSD Discovery Workbench analysis software. Statistical Analysis. Demographic differences between Control and EVC001-fed infants was analyzed using Fisher's Exact test for categorical data and Wilcoxon rank sum (Mann-Whitney U) test for continuous data. […] The relationship between fecal calprotectin concentration and % Bifidobacteriaceae was quantified using Spearman's Rho correlation, and the differences in calprotectin concentration between high (>25%) and low (<25%) Bifidobacteriaceae abundance was assessed using the Wilcoxon rank sum test. One subject with abnormally high fecal calprotectin concentration (greater than 3 standard deviations above the mean of both treatment and control data) was considered an extreme outlier and removed from the aforementioned calprotectin analyses. Wilcoxon rank sum tests were performed to assess relative abundance for each bacterial taxa and cytokine concentration differences. For radar plots, medians were adjusted to log scale, then normalized within each cytokine group from 0 to 1. Differences overtime within each cytokine group were evaluated using the Wilcoxon rank sum test. P-values were adjusted using the Bonferroni-Holms method and considered statistically significant if P<0.05. Statistical analyses were applied to determine the significance of global cytokine profile as determined by computing a Bray-Curtis distance metric translated into a principal coordinate analysis and visualized with EMPeror. Global cytokine profile differences by group status were then determined using a permutational multivariate analysis of variance (PERMANOVA), and significant P-values were determined using 999 Monte Carlo permutations. To assess the relationship between the global cytokine profile and the microbiome, we used a Procrustes analysis. The taxonomic operational taxonomic unit (OTU) table at the family level was computed using QIIME, and the cytokine table was used to generate a distance matrix for each, using a weighted UniFrac for 16S and Bray-Curtis for the cytokine. We performed a principal coordinate analysis separately on the two matrices and used a Procrustes analysis as implemented in QIIME to rotate, translate, and scale the matrices. The resulting transformed matrices were plotted using EMPeror. P-values for the Procrustes analysis were generated using Monte Carlo simulations (n=999). Raw correlation statistics were assigned the likelihood of these associations to be true positive associations by computing P-values via a Fisher's Z transform to normalize the distribution of the correlation scores.
# zonulin = assay: Fecal zonulin ELISA; details: treatment group
# Source text: Fecal zonulin concentrations: Zonulin has been described as the main physiological modulator of intercellular tight junction, and increased levels are indicative of increased gut permeability.
# [2] = system: vaccine specific antibodies; assay: Vaccine-specific antibodies in infant stool
# Source text: Infants from Example 1 received vaccines per the standard schedule. Standard schedule is expected to look like this, as per the CDC (other nations have slightly different schedules; however, the repeated doses over the first year of life is common).
# Stool samples were collected at 10 and 12 months for vaccine quantification to coincide with an appropriate post-vaccine time point, and to allow the expansion of vaccine-specific antibodies concentrations to plateau after primary, secondary or tertiary doses [Wright et al. (2014) Journal of Infectious Diseases:209 pg 1628-1634; Brown et al. (2012) J Immunol Methods: 386(1-2): 117-12].
# Evaluation of stool for antigen specific responses in infants colonized with B. infantis EVC001. Biophysical antibody profiling assays are performed to assess the Fv and Fc characteristics of vaccine-elicited antibodies raised in infants with and without B. infantis colonization. Presence and phenotype of antibodies in test samples are assessed by staining of bead-bound antibodies with PE-conjugated detection reagents (Anti-IgG, Anti-IgA, and potentially Anti-IgE) and detection via flow cytometry. For the assay, 100 μL each of prepared stool samples from 34 subjects (2 timepoints, up to 62 samples total) that received either received EVC001 or are part of the control group.
# [3] = Day 40 compared to Day 6, within EVC001-fed infants
# [4] = Day 60 compared to Day 6, within EVC001-fed infants
# [5] = Day 6 (Baseline), before supplementation starts on Day 7
substance,measurement,setting,value
Bifidobacterium longum subsp. infantis EVC001 [B. infantis EVC001],Fecal IFNγ level change over time,[1]; [3],significantly increased
same,Fecal IL-2 level change over time,[1]; [3],significantly lower
same,Fecal IL-5 level change over time,[1]; [3],significantly lower
same,Fecal IL-6 level change over time,[1]; [3],significantly lower
same,Fecal IL-10 level change over time,[1]; [3],significantly lower
same,Fecal IL-22 level change over time,[1]; [3],significantly lower
same,Fecal TNFα level change over time,[1]; [3],significantly lower
same,Fecal IFNγ level change over time,[1]; [4],significantly higher
same,Fecal IL-2 level change over time,[1]; [4],significantly lower
same,Fecal IL-5 level change over time,[1]; [4],significantly lower
same,Fecal IL-6 level change over time,[1]; [4],significantly lower
same,Fecal IL-10 level change over time,[1]; [4],significantly lower
same,Fecal TNFα level change over time,[1]; [4],significantly lower
same,Fecal IL-22 level change over time,"[1]; Day 60 compared to Day 40, within EVC001-fed infants",significantly higher
same,Fecal cytokine levels overall,"[1]; first 60 days postnatal, versus Control infants",significantly lower
same,IFNγ Median (SD),[1]; [5],0.29 pg/mg
same,IL-1β Median (SD),[1]; [5],38.65 pg/mg
same,IL-2 Median (SD),[1]; [5],48.13 pg/mg
same,IL-5 Median (SD),[1]; [5],16.53 pg/mg
same,IL-6 Median (SD),[1]; [5],9.29 pg/mg
same,IL-8 Median (SD),[1]; [5],48.35 pg/mg
same,IL-10 Median (SD),[1]; [5],8.76 pg/mg
same,IL-22 Median (SD),[1]; [5],4.22 pg/mg
same,TNFα Median (SD),[1]; [5],26.71 pg/mg
same,IL-2 Median (SD),[1]; Day 40,3.36 pg/mg
same,IL-5 Median (SD),[1]; Day 40,1.48 pg/mg
same,IL-6 Median (SD),[1]; Day 40,0.48 pg/mg
same,IL-10 Median (SD),[1]; Day 40,0.55 pg/mg
same,TNFα Median (SD),[1]; Day 40,2.7 pg/mg
same,IFNγ Median (SD),[1]; Day 60,26.74 pg/mg
same,IL-1β Median (SD),[1]; Day 60,13.22 pg/mg
same,IL-2 Median (SD),[1]; Day 60,3.16 pg/mg
same,IL-5 Median (SD),[1]; Day 60,1.85 pg/mg
same,IL-6 Median (SD),[1]; Day 60,0.71 pg/mg
same,IL-8 Median (SD),[1]; Day 60,70.13 pg/mg
same,IL-10 Median (SD),[1]; Day 60,0.46 pg/mg
same,IL-22 Median (SD),[1]; Day 60,3.54 pg/mg
same,TNFα Median (SD),[1]; Day 60,3.97 pg/mg
same,Fecal zonulin concentration,zonulin,significantly reduced
same,Vaccine response,[2]; infants persistently colonized for at least the first 100 days of life vs infants without colonization,stronger vaccine response
same,Vaccine specific antibodies in stool,"[2]; stool collected at 10 and 12 months, treatment group",significant elevation
